This is an account of results in US20260124293A1 (priority 2022, published 2026).

For data set [1], the system named is K18-hACE2 mice. The conditions noted are these: mouse, in vivo.
Data set [2] relates to Syrian hamsters. The conditions noted are these: hamster, in vivo.

In the case of “BetaCoV/Wuhan/IVDC-HB-01/2019 [SARS-CoV-2 WT]”, in data set [1], the body weight loss result is listed as “associated with weight loss” and the clinical signs entry is recorded as “only WT exhibit clinical signs”. Further, in data set [2], the “animals that succumbed to the disease or reached termination criteria” value is 75% and the mean bodyweight came out at 84%.
